In ChEMBL document CHEMBL1140601, “Quantitative structure-activity relationship (QSAR) of tacrine derivatives against acetylcholinesterase (AChE) activity using variable selections” (Bioorg Med Chem Lett, 2007):

The molecules below were run against Acetylcholinesterase (Homo sapiens) (UniProt P22303).
Sequence of Acetylcholinesterase (Homo sapiens) (P22303 whole entry): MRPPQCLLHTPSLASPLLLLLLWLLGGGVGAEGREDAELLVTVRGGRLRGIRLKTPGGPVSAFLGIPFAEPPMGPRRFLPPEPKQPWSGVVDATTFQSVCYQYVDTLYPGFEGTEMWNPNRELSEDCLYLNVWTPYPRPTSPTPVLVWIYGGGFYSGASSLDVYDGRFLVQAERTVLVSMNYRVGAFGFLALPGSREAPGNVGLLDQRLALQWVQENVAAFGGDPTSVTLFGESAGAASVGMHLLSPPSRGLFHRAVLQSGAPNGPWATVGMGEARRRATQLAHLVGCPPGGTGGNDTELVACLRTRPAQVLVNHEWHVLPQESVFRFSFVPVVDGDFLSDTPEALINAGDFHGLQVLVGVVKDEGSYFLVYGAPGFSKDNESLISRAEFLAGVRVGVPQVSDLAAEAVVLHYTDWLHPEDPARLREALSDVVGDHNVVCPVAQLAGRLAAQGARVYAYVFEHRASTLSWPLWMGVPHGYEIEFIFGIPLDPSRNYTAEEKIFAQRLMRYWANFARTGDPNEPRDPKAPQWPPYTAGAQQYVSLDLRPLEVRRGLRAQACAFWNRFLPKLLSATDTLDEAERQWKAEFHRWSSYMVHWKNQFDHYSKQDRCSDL
Description: Inhibition of AchE relative to tacrine

Q: Which logRA does the source give for `COc1ccc2c(c1)-c1nc3ccccc3c(N)c1C2` here?
A: -1.24

Q: Which logRA does the source give for `CCOC(=O)c1c(C)nc2nc3c(c(N)c2c1-c1cccs1)CCCCC3` here?
A: -2.01

Q: For `Fc1ccc2c(NCCCCCCNc3c4c(nc5cc(F)ccc35)CCCC4)c3c(nc2c1)CCCC3`, which logRA is on record?
A: 2.57

Q: `CCOC(=O)C1=C(C)Oc2nc3c(c(N)c2C1c1ccc(OC)c(OC)c1)CCCC3` (stereo unspecified) was tested. Which logRA did it give?
A: -1.41

Q: Which logRA does the source give for `CC1=CC2Cc3nc4cc(Cl)ccc4c(NCCCCCCCNc4c5c(nc6cc(Cl)ccc46)CCCC5)c3C(C1)C2` (stereo unspecified) here?
A: 2.79

Q: How did the logRA turn out when `Nc1c2c(nc3ccccc13)C[S+]([O-])CC2O` (stereo unspecified) was run?
A: -0.745

Q: How did the logRA turn out when `Nc1c2c(nc3ccccc13)CSCC2=O` was run?
A: -0.745

Q: For `CC1=CC2Cc3nc4ccccc4c(NCCCCCCCCNc4c5c(nc6ccccc46)CCCC5)c3C(C1)C2` (stereo unspecified), which logRA is on record?
A: 2.4

Q: `CCOC(=O)c1c(C)nc2nc3c(c(N)c2c1-c1cccs1)CCCC3` was tested. Which logRA did it give?
A: -2.25

Q: With `CCOC(=O)C1=C(C)Oc2nc3c(c(N)c2C1c1ccc(C#N)cc1)CCCC3` (stereo unspecified) as the molecule, how does the logRA read?
A: -1.43

Q: With `c1ccc2c(NCCCCCCNc3c4c(nc5ccccc35)CCCCC4)c3c(nc2c1)CCCCC3` as the molecule, how does the logRA read?
A: 2.19

Q: For `CC1=CC2Cc3nc4cc(Cl)ccc4c(NCCCCCCNc4c5c(nc6ccccc46)CCCC5)c3C(C1)C2` (stereo unspecified), which logRA is on record?
A: 2.61

Q: How did the logRA turn out when `CCOC(=O)c1c(C)nc2nc3c(c(N)c2c1-c1ccc(OC)cc1)CCCCC3` was run?
A: -1.02

Q: Which logRA does the source give for `CCOC(=O)c1c(C)nc2nc3c(c(N)c2c1-c1ccccc1)CCC3` here?
A: -1.96

Q: For `CCOC(=O)C1=C(C)Oc2nc3c(c(N)c2C1c1cccc(OC)c1)CCCCC3` (stereo unspecified), which logRA is on record?
A: -1.86

Q: Which logRA does the source give for `CCOC(=O)C1=C(C)Oc2nc3c(c(N)c2C1c1ccccc1)CCCC3` (stereo unspecified) here?
A: -1.08

Q: Which logRA does the source give for `CCOC(=O)c1c(C)nc2nc3c(c(N)c2c1-c1ccc(OC)c(OC)c1)CCCC3` here?
A: -0.859

Q: For `Cc1cccc2c1Cc1c-2nc2ccccc2c1N`, which logRA is on record?
A: -1.19

Q: With `Nc1ccc2nc3c(c(N)c2c1)Cc1ccccc1-3` as the molecule, how does the logRA read?
A: -1.37

Q: For `COc1cccc2c1Cc1c-2nc2ccccc2c1N`, which logRA is on record?
A: -0.806

Q: Which logRA does the source give for `CCOC(=O)C1=C(C)Oc2nc3c(c(N)c2C1c1ccc(C)cc1)CCCC3` (stereo unspecified) here?
A: -1.15

Q: With `CC1=CC2Cc3nc4cc(Cl)ccc4c(NCCCN(C)CCCNc4c5c(nc6ccccc46)CCCC5)c3C(C1)C2` (stereo unspecified) as the molecule, how does the logRA read?
A: 2.81

Q: With `CCOC(=O)C1=C(C)Oc2nc3c(c(N)c2C1c1ccccc1OC)CCC3` (stereo unspecified) as the molecule, how does the logRA read?
A: -2.12

Q: `CCOC(=O)c1c(C)nc2nc3c(c(N)c2c1-c1ccc(F)cc1)CCCCC3` was tested. Which logRA did it give?
A: -1.48

Q: `CCOC(=O)C1=C(C)Oc2nc3c(c(N)c2C1c1ccc(OC)c(OC)c1)CCC3` (stereo unspecified) was tested. Which logRA did it give?
A: -2.18

Q: Which logRA does the source give for `CCOC(=O)C1=C(C)Oc2nc3c(c(N)c2C1c1cccnc1)CCCC3` (stereo unspecified) here?
A: -1.71

Q: How did the logRA turn out when `CCOC(=O)C1=C(C)Oc2nc3c(c(N)c2C1c1ccc(OC)cc1)CCCC3` (stereo unspecified) was run?
A: -0.825

Q: With `CCOC(=O)C1=C(C)Oc2nc3c(c(N)c2C1c1ccncc1)CCCCC3` (stereo unspecified) as the molecule, how does the logRA read?
A: -1.79

Q: Which logRA does the source give for `Nc1c2c(nc3cc(Cl)ccc13)-c1ccccc1C2` here?
A: -1.42

Q: Which logRA does the source give for `CCOC(=O)c1c(C)nc2nc3c(c(N)c2c1-c1ccc(Cl)cc1)CCCC3` here?
A: -0.859

Q: How did the logRA turn out when `c1ccc2c(NCCCCCCCNc3c4c(nc5ccccc35)CCCC4)c3c(nc2c1)CCCC3` was run?
A: 2.41

Q: With `CCOC(=O)C1=C(C)Oc2nc3c(c(N)c2C1c1ccc(Cl)cc1)CCCC3` (stereo unspecified) as the molecule, how does the logRA read?
A: -1.17

Q: `c1ccc2c(NCCCCCCNc3c4c(nc5ccccc35)CCCC4)c3c(nc2c1)CCCC3` was tested. Which logRA did it give?
A: 2.38

Q: How did the logRA turn out when `c1ccc2c(NCCCCCCCCNc3c4c(nc5ccccc35)CCCC4)c3c(nc2c1)CCCC3` was run?
A: 2.32

Q: With `CCOC(=O)C1=C(C)Oc2nc3c(c(N)c2C1c1ccncc1)CCCC3` (stereo unspecified) as the molecule, how does the logRA read?
A: -1.33

Q: With `Fc1ccc2c(NCCCCCCCCNc3c4c(nc5cc(F)ccc35)CCCC4)c3c(nc2c1)CCCC3` as the molecule, how does the logRA read?
A: 2.68

Q: How did the logRA turn out when `O=C(CNc1c2c(nc3ccccc13)CCCC2)NCCC1CCN(c2ccccc2)CC1` was run?
A: 1.57

Q: Which logRA does the source give for `CCOC(=O)C1=C(C)Oc2nc3c(c(N)c2C1c1ccccc1OC)CCCCC3` (stereo unspecified) here?
A: -2.07

Q: `CCOC(=O)c1c(C)nc2nc3c(c(N)c2c1-c1ccc(OC)cc1)CCC3` was tested. Which logRA did it give?
A: -2.02

Q: With `CC1=CC2Cc3nc4cc(Cl)ccc4c(NCCCCCCCCNc4c5c(nc6cc(Cl)ccc46)CCCC5)c3C(C1)C2` (stereo unspecified) as the molecule, how does the logRA read?
A: 2.71

Q: How did the logRA turn out when `Nc1c2c(nc3ccccc13)-c1ccc(Cl)cc1C2` was run?
A: -1.33

Q: `Nc1c2c(nc3cc(F)ccc13)-c1ccccc1C2` was tested. Which logRA did it give?
A: -0.681

Q: For `Clc1ccc2c(NCCCCCCNc3c4c(nc5cc(Cl)ccc35)CCCC4)c3c(nc2c1)CCCC3`, which logRA is on record?
A: 2.74

Q: Which logRA does the source give for `Nc1c2c(nc3ccccc13)-c1ccccc1C2` here?
A: -0.435

Q: How did the logRA turn out when `CC1=CC2Cc3nc4cc(Cl)ccc4c(NCCCCCCCNc4c5c(nc6ccccc46)CCCC5)c3C(C1)C2` (stereo unspecified) was run?
A: 2.78

Q: With `CC1=CC2Cc3nc4cc(Cl)ccc4c(NCCCCCCCCNc4c5c(nc6ccccc46)CCCC5)c3C(C1)C2` (stereo unspecified) as the molecule, how does the logRA read?
A: 2.79

Q: Which logRA does the source give for `CCOC(=O)C1=C(C)Oc2nc3c(c(N)c2C1c1ccncc1)CCC3` (stereo unspecified) here?
A: -1.67

Q: `CCOC(=O)c1c(C)nc2nc3c(c(N)c2c1-c1ccccc1)CCCCC3` was tested. Which logRA did it give?
A: -0.768

Q: How did the logRA turn out when `CCOC(=O)c1c(C)nc2nc3c(c(N)c2c1-c1ccc(OC)cc1)CCCC3` was run?
A: -1.84

Q: Which logRA does the source give for `CCOC(=O)c1c(C)nc2nc3c(c(N)c2c1-c1ccccc1)CCCC3` here?
A: -0.801

Q: `Fc1ccc2c(NCCCCCCCNc3c4c(nc5ccccc35)CCC4)c3c(nc2c1)CCC3` was tested. Which logRA did it give?
A: 0.647

Q: For `CC1=CC2Cc3nc4cc(Cl)ccc4c(NCCCN(C)CCCNc4c5c(nc6cc(Cl)ccc46)CCCC5)c3C(C1)C2` (stereo unspecified), which logRA is on record?
A: 2.85

Q: Which logRA does the source give for `COc1ccc2c(c1)Cc1c-2nc2ccccc2c1N` here?
A: -1.42

Q: Which logRA does the source give for `CNc1c2c(nc3ccccc13)-c1ccccc1C2` here?
A: -0.716

Q: `CCOC(=O)c1c(C)nc2nc3c(c(N)c2c1-c1cccc([N+](=O)[O-])c1)CCCC3` was tested. Which logRA did it give?
A: -0.713

Q: Which logRA does the source give for `CC1=CC2Cc3nc4cc(Cl)ccc4c(NCCCCCCNc4c5c(nc6cc(Cl)ccc46)CCCC5)c3C(C1)C2` (stereo unspecified) here?
A: 2.66

Q: `CCOC(=O)C1=C(C)Oc2nc3c(c(N)c2C1c1ccc(OC)c(OC)c1)CCCCC3` (stereo unspecified) was tested. Which logRA did it give?
A: -2.26

Q: `CCOC(=O)c1c(C)nc2nc3c(c(N)c2c1-c1cccc(OC)c1)CCCC3` was tested. Which logRA did it give?
A: -0.824

Q: With `CCOC(=O)c1c(C)nc2nc3c(c(N)c2c1-c1ccc(OC)c(OC)c1)CCCCC3` as the molecule, how does the logRA read?
A: -1.55

Q: Which logRA does the source give for `Cc1ccc2c(c1)-c1nc3ccccc3c(N)c1C2` here?
A: -1.26

Q: With `CCOC(=O)c1c(C)nc2nc3c(c(N)c2c1-c1cccs1)CCC3` as the molecule, how does the logRA read?
A: -2.3

Q: How did the logRA turn out when `CCOC(=O)c1c(C)nc2nc3c(c(N)c2c1-c1ccc(F)cc1)CCCC3` was run?
A: -0.596

Q: For `Nc1c2c(nc3ccccc13)CSCC2O` (stereo unspecified), which logRA is on record?
A: -0.852

Q: How did the logRA turn out when `CCOC(=O)c1c(C)nc2nc3c(c(N)c2c1-c1ccncc1)CCC3` was run?
A: -1.77

Q: `Cc1nc2nc3c(c(N)c2c(-c2ccccc2)c1C(=O)OC(C)C)CCCC3` was tested. Which logRA did it give?
A: -0.824

Q: Which logRA does the source give for `CCOC(=O)C1=C(C)Oc2nc3c(c(N)c2C1c1ccccc1)CCC3` (stereo unspecified) here?
A: -1.48

Q: For `CCOC(=O)C1=C(C)Oc2nc3c(c(N)c2C1c1cccc([N+](=O)[O-])c1)CCCC3` (stereo unspecified), which logRA is on record?
A: -1.16

Q: For `CCOC(=O)c1c(C)nc2nc3c(c(N)c2c1-c1cccn1C(C)=O)CCCC3`, which logRA is on record?
A: -1.08

Q: For `CCOC(=O)c1c(C)nc2nc3c(c(N)c2c1-c1ccncc1)CCCC3`, which logRA is on record?
A: -1

Q: With `CCOC(=O)C1=C(C)Oc2nc3c(c(N)c2C1c1ccccc1OC)CCCC3` (stereo unspecified) as the molecule, how does the logRA read?
A: -1.63

Q: How did the logRA turn out when `CCOC(=O)c1c(C)nc2nc3c(c(N)c2c1-c1ccncc1)CCCCC3` was run?
A: -1.56
